Data on four compounds can be found in EP0314008A2, “N-substituted aliphatic heterocyclic compounds able to facilitate the passage of active substances through physiological barriers” (priority 1987, dated 1989).

SMILES strings stand for the structures.

Usually inhibition stands for the change of the read-out against control, counted positive when it falls.

The subject of one data set is serotonin. The data set is described as follows: Test 74 - Antiserotonin (in vitro), isolated ileal segments. Type of data set: cell-based, guinea pig. To be noted: Cavia porcellus, contractile response to serotonin (1 mcg/ml); for inhibition at 1 µg/mL: Dose 1 γ/ml. The text has this: Test 74 - Antiserotonin (in vitro):
Data set [1] relates to skin taken from a "nude" mouse.
Method: (§1) This study was carried out by "in vitro" tests using a skin diffusion cell apparatus consisting of two glass segments separated by a layer of skin taken from a "nude" mouse, genetically without hair. Suspensions of the substance to be tested are deposited on the stratum corneum of the skin. The dermic layer dips into a buffer solution from which withdrawals are made at intervals to determine the quantity of substance which has passed through the epidermis.
(§2) 1-dodecylazacycloheptan-2-one (azone) is used as reference standard.
(§3) Suspensions at the required concentrations (0.5 and 1% w/v) are then prepared by ultrasonic treatment three times for 30 seconds in an ice bath with a titanium-tipped ultrasonic generator. The pHs of the 1 % suspensions in 0.1 M pH 7.0 phosphated buffer are as follows:
(§4) The volume of examined suspension applied externally to the skin is 1 ml. The volume of buffer solution in the cell lower chamber is 10 ml. After each withdrawal of 1 ml of solution from the lower chamber, the volume was made up to 10 ml by adding buffer.
For data set [2], the system named is skin taken from a "nude" mouse. Nature of the data set: skin permeability test in vitro, skin diffusion cell apparatus, passage of naproxen-Na. To be noted: naproxen-Na passage with facilitating substance at 0.5%, second set.
Method: as §1, §2, §3, §4
Another data set relates to histamine. Nature of the data set: Test 73 - Antihistaminic (in vitro), isolated ileal segments. The data set is classed as cell-based, guinea pig. To be noted: Cavia porcellus, contractile response to histamine (0.5 mcg/ml). The source says:
Test 73 - Antihistaminic (in vitro):
Inhibition of submaximal contractile responses of isolated guinea pig ileal segments, bathed in physiological salt solution, to histamine (0.5 mcg/ml) by more than 80 percent (>80) indicates activity.

For another data set, the system named is LTD4. The data set is described as follows: Test 37 - LTD4 antagonist (in vitro), isolated ileal segments. Type of data set: cell-based, guinea pig. To be noted: Cavia porcellus, contractile response to LTD4 (10 ng/ml). The source says:
Test 37 - LTD4 antagonist (in vitro):

Regarding `CN1CCC(=C2c3ccccc3C=Cc3ccccc32)CC1` [Cyproheptadine, reference compound], in the data set on serotonin, the inhibition at 1 µg/mL was 85%.

For `CCCCCCCCCCCCN1CCSCC1` [Example 1, 4-dodecylthiomorpholine], the “results compared with the compound of Example 3” value in data set [1] is reported as “practically equal results”.

As to `CCCCCCCCCCCCN1CC[S+]([O-])CC1` [Example 2, 4-dodecylthiomorpholine-1-oxide], the “F.U.a. 355.5 nm” value in data set [2] (3.0 hours) is on record as 0.143 F.U.a; in data set [2] (5.0 hours), 0.426 F.U.a; in data set [2] (7.0 hours), 0.755 F.U.a; in data set [2] ([…]) it was 0.033 F.U.a. The nmoles passed in data set [2] (3.0 hours) amounted to 366.0 nmol; in data set [2] (5.0 hours) it was 1093.0 nmol; in data set [2] (7.0 hours) it was 1968.0 nmol; in data set [2] ([…]), 82.5 nmol.

For the compound `CCCCCCCCCC(=O)N1CCSCC1` [Example 5, 4-decanoylthiomorpholide], the inhibition at 1 µg/mL stood at 18% with histamine (Dose 1 γ/ml) and 100% in the data set on serotonin. Besides, the figures for the inhibition at 2.5 µg/mL with histamine (Dose 2.5 γ/ml) and in the data set with serotonin (Dose 2.5 γ/ml) were 82% and 100%, respectively. Besides, the inhibition at 10 µg/mL in the data set with histamine (Dose 10 γ/ml) and with serotonin (Dose 10 γ/ml) was 100% in each case. The compound further showed an inhibition at 4 µg/mL in the data set with LTD4 (Dose 4 γ/ml) of 28%. For the same compound, in the data set with LTD4 (Dose 8 γ/ml), the inhibition at 8 µg/mL worked out at 75%. For the same compound, the inhibition at 0.5 µg/mL in the data set on serotonin (Dose 0.5 γ/ml) worked out at 68%.
